The source of these data is publication PMC10458458, “Characterization of Anticancer Effects of the Analogs of DJ4, a Novel Selective Inhibitor of ROCK and MRCK Kinases” (Pharmaceuticals, 2023).

Assay [1] deals with HL60VCR acute myeloid leukemia cells. The assay can be described thus: Cell number and cell cycle in multidrug resistant cells. Format: cell-based, human. Conditions: 2.5 µM and 5 µM. The protocol: The following cell lines used in this study were obtained from ATCC: NSCLC (A549, CCL-185; H522, CRL-5810; H23, CRL-5800; H2126, CCL-256; H460, HTB-177), melanoma (A375M, CRL-1619), and breast cancer (MDA-MB-231, HTB-26). Cells were maintained in DMEM or RPMI media (Cellgro, Corning, NY, USA) supplemented with 10% fetal bovine serum (Gibco, Fisher Scientific, Hampton, NH, USA) and penicillin/streptomycin (Gibco, Fisher Scientific, Hampton, NH, USA) at 37 °C with 5% CO2 humidified incubator. Acute myeloid leukemia cells (AML, HL60; CCL240) were obtained from ATCC while vincristine resistant HL60 (HL60VCR) cells were a gift from Dr. Hong-Gang Wang (Penn State College of Medicine, Hershey, PA, USA) and both the cells were cultured in IMDM medium (HyClone, Washington, D.C., USA) with 10% FBS.
Figure S3. DJ4 was ineffective in multidrug resistant HL60VCR acute myeloid leukemia cells.
A. Endogenous expression of p-glycoprotein (P-gp) in HL60 and HL60VCR (multidrug resistant cells). β-Actin was used as internal control.
B. P-gp inhibitor cyclosporine A (CsA) treatment (2.5 µM) sensitized resistant cancer cells to DJ4. […] Number of cells were counted using MuseTM cell analyzer.
Statistical significance was analyzed by one-way ANOVA and Dunnett’s multiple comparison post-test. […]
C. […] The cells were treated at 2.5 µM and 5 µM concentrations and analyzed using flow cytometry. […]

The test system of the next assay is H23. The assay can be described thus: MTT cytotoxicity assay, 72 h. Format: cell-based. Conditions: Homo sapiens, NCI-H23, H23 NSCLC cells, plated to confluence, read-out: IC50 (mean cytotoxic concentration, MTT). The protocol:
(§1) To determine whether the effects on cell viability in AML cells were related to the specific cancer subtypes, or to differences in temporal response to DJ4, we examined whether DJ4 affected the viability of various NSCLC cells over longer periods of drug exposure. MTT assays were performed on H1299, H226, A549, H522, H23, and H460 NSCLC cell lines. […] Similarly, the cell viability of MDA-MB-231 breast cancer cells was assessed by counting live/dead cell populations after a 24-h treatment with 1–10 µM concentrations of DJ4. A concentration-dependent increase in cell death from 29% (1 µM) to 47% (10 µM) was observed (Figure 2B).
(§2) The cytotoxic effect of DJ4 was studied in H1299, H226, A549, H522, H23, and H460 non-small cell lung cancer cells. The cells were seeded into 96-well plates with confluence ([…]). The cells were further treated with DMSO or DJ4 for 72 h. To study the effects of analogs, A549, A375M, and MDA-MB-231 cells were plated with low density (2000 cells/well) in a 96-well plate and grown overnight at 37 °C (with 5% CO2). Cells were treated with the analogs at the concentration of 0–10 µM for 48 h. At the end of the treatment period, cells were incubated with a tetrazolium dye MTT (3-(4,5-dimethylthiazol-2-yl)-2,5-diphenyltetrazolium bromide) reagent (Sigma) at 37 °C for 3 h to develop formazan crystals. The media was siphoned off and crystals were dissolved in DMSO and mixed gently on rocker for 5 min. Absorbance was read at 570 nm and 630 nm (background) wavelength. IC50 values were calculated from non-linear regression curve fit by using GraphPad Prism 5.0 software.
A general note: Formazan colour is commonly taken as a measure of viable cells.

The test system of another assay is A549. The assay can be described thus: MTT cytotoxicity assay, 72 h. The format is cell-based. To be noted: Homo sapiens, A549 NSCLC cells, plated to confluence, read-out: IC50 (mean cytotoxic concentration, MTT). The method, then:
as §1, §2

The subject of the next assay is H460. The assay can be described thus: MTT cytotoxicity assay, 72 h. The format is cell-based. To be noted: Homo sapiens, NCI-H460, H460 NSCLC cells, plated to confluence, read-out: IC50 (mean cytotoxic concentration, MTT). The protocol: as §1, §2
In a further assay the test system is H522. The assay can be described thus: MTT cytotoxicity assay, 72 h. The format is cell-based. Conditions: Homo sapiens, NCI-H522, H522 NSCLC cells, plated to confluence, read-out: IC50 (mean cytotoxic concentration, MTT). The method, then: as §1, §2
For a further assay, the system named is H226. The assay can be described thus: MTT cytotoxicity assay, 72 h. Format: cell-based. Conditions: Homo sapiens, NCI-H226, H226 NSCLC cells, plated to confluence, read-out: IC50 (mean cytotoxic concentration, MTT). The protocol: as §1, §2
For the next assay, the system named is H1299. The assay can be described thus: MTT cytotoxicity assay, 72 h. The format is cell-based. To be noted: Homo sapiens, NCI-H1299, H1299 NSCLC cells, plated to confluence, read-out: IC50 (mean cytotoxic concentration, MTT). The method, then: as §1, §2
In the next assay the test system is A549 cells. The assay can be described thus: Western blot of cell cycle regulatory proteins. The format is cell-based, human. The protocol: To better understand the anti-proliferative and pro-apoptotic effects of DJ4, expression of key proteins involved in proliferation and apoptosis were determined by a Western blot. A549 cells were treated with 2.5 µM and 10 µM concentrations for 24 h and 48 h. […] We also examined the expression of cyclin D3 and CDK4 (G1/S cell cycle checkpoint kinase).
For protein expression studies, MDA-MB-231 cells were treated with indicated concentrations of DJ4 for 24 h. Additionally, A549 cells were treated for 24 h and 48 h. Cell lysate preparation, protein estimation, and Western blot analysis was performed as per the procedure reported earlier. The blots were probed with cleaved caspase 7 (#9492, Cell Signaling, Danvers, MA, USA), GAPDH (#97166, Cell Signaling, Danvers, MA, USA), β-Actin (#3700, Cell Signaling, Danvers, MA, USA), pErk (#5726, Cell Signaling, Danvers, MA, USA), p21 ^WAF1/CIP1 (#60480, Cell Signaling, Danvers, MA, USA), cyclinD3 (#2936, Cell Signaling, Danvers, MA, USA), CDK4 (#23972, Cell Signaling, Danvers, MA, USA), cleaved PARP (#32563, Cell Signaling, Danvers, MA, USA), pan Erk (#23887, Cell Signaling, Danvers, MA, USA), pMYPT1 (Thr853, # SAB4503944, Millipore, Inc., Burlington, MA, USA) and PCNA (#sc-56, Santa Cruz Biotechnology, Inc., Dallas, TX, USA) antibodies.
(In general: Immunoblotting shows a protein as a band on a membrane.)

For `O=C1N/C(=N\CCc2ccccc2)S/C1=C/c1c[nH]c2ncccc12` [DJ4], in assay [1], the “effect in multidrug resistant cells” value is reported as “ineffective”. Further, the IC50 was determined as 2.91 ± 0.71 µM in the assay on H23; 0.98 ± 0.21 µM with A549; 9.53 µM in the assay on H460; 1.69 ± 0.48 µM with H522; 0.67 ± 0.38 µM with H226; 0.44 ± 0.04 µM with H1299. For the same compound, the “activation of Erk1/2 (phospho-Erk; pERK)” value in the assay with A549 cells (A549, 2.5 µM, 24 h) is listed as “significantly induced activation”. Moreover, the “expression of CDK4” value in the assay on A549 cells (A549, 2.5 µM, 24 h) is “upregulated”. Besides, the “expression of cyclin D3” value with A549 cells (A549, 2.5 µM, 24 h) was “upregulated”. For the same compound, the “expression of p21 WAF1/CIP1” value in the assay with A549 cells (A549, 2.5 µM, 24 h) was “upregulated”. Besides, the “expression of p21 WAF1/CIP1, pERK, CDK4, and cyclin D3” value in the assay on A549 cells (A549, 10 µM, 24 h and 48 h) is listed as “decreased below vehicle treatment levels”.
